Results: ChEMBL document CHEMBL4613208, “Isatin derivatives and their anti-bacterial activities” (Eur J Med Chem, 2019)
Converted amounts (≈) assume the structure as drawn.

Assays:
[1] = test system: Staphylococcus aureus; experiment: Antibacterial activity against Staphylococcus aureus; assay type: functional, organism-based
[2] = test system: Klebsiella pneumoniae; experiment: Antibacterial activity against Klebsiella pneumoniae; assay type: functional
[3] = test system: Shigella flexneri; experiment: Antibacterial activity against Shigella flexneri; assay type: functional
[4] = test system: Escherichia coli; experiment: Antibacterial activity against Escherichia coli; assay type: functional, organism-based
[5] = test system: Pseudomonas aeruginosa; experiment: Antibacterial activity against Pseudomonas aeruginosa; assay type: functional, organism-based
[6] = test system: Salmonella typhi; experiment: Antibacterial activity against Salmonella typhi; assay type: functional, Salmonella enterica subsp. enterica serovar Typhi; conditions: Salmonella enterica
[7] = test system: Vibrio cholerae; experiment: Antibacterial activity against Vibrio cholerae; assay type: functional
[8] = test system: Staphylococcus epidermidis; experiment: Antibacterial activity against Staphylococcus epidermidis; assay type: functional
[9] = test system: Citrobacter freundii; experiment: Antibacterial activity against Citrobacter freundii; assay type: functional
[10] = test system: Escherichia coli; experiment: In vivo antibacterial activity against Escherichia coli infected in po dosed mouse; assay type: functional
[11] = test system: Escherichia coli; experiment: Potency index, ratio of ED50 for norfloxacin to ED50 for test compound for in vivo antibacterial activity against Escherichia coli infected in po dosed mouse; assay type: functional
[12] = Toxicity in po dosed mouse; assay type: organism-based; conditions: in vivo
[13] = test system: Escherichia coli; experiment: Antibacterial activity against Escherichia coli NCTC 10418; assay type: functional
[14] = test system: Bacillus pumilus; experiment: Antibacterial activity against Bacillus pumilus; assay type: functional
[15] = test system: Priestia megaterium; experiment: Antibacterial activity against Bacillus megaterium; assay type: functional
[16] = test system: Streptococcus pyogenes; experiment: Antibacterial activity against Streptococcus pyogenes; assay type: functional
[17] = test system: Bacillus subtilis; experiment: Antibacterial activity against Bacillus subtilis; assay type: functional
[18] = test system: Proteus vulgaris; experiment: Antibacterial activity against Proteus vulgaris; assay type: functional
[19] = test system: Escherichia coli; experiment: Antibacterial activity against Escherichia coli assessed as zone of inhibition at 20 mg/ml; assay type: functional; conditions: read-out: IZ
[20] = test system: Pseudomonas aeruginosa; experiment: Antibacterial activity against Pseudomonas aeruginosa assessed as zone of inhibition at 20 mg/ml; assay type: functional; conditions: read-out: IZ
[21] = test system: Staphylococcus aureus; experiment: Antibacterial activity against Staphylococcus aureus assessed as zone of inhibition at 20 mg/ml; assay type: functional; conditions: read-out: IZ
[22] = test system: Bacillus subtilis; experiment: Antibacterial activity against Bacillus subtilis assessed as zone of inhibition at 20 mg/ml; assay type: functional; conditions: read-out: IZ
[23] = test system: Staphylococcus aureus; experiment: Antibacterial activity against Staphylococcus aureus ATCC 25923 after 24 hrs by agar well diffusion technique; assay type: functional; conditions: ATCC 25923, 24 h
[24] = test system: Bacillus cereus; experiment: Antibacterial activity against Bacillus cereus after 24 hrs by agar well diffusion technique; assay type: functional
[25] = test system: Escherichia coli; experiment: Antibacterial activity against Escherichia coli ATCC 25922 after 24 hrs by agar well diffusion technique; assay type: functional; conditions: ATCC 25922, 24 h
[26] = test system: Shigella dysenteriae; experiment: Antibacterial activity against Shigella dysenteriae after 24 hrs by agar well diffusion technique; assay type: functional
[27] = test system: Shigella dysenteriae; experiment: Potency index, ratio of MIC for sulfamethoxazole to MIC for test compound for antibacterial activity against Shigella dysenteriae after 24 hrs by agar well diffusion technique; assay type: functional

Compound `O=C1C(=O)N(CN2CCN(c3cc4c(cc3F)c(=O)c(C(=O)O)cn4C3CC3)CC2)c2ccccc21` has an MIC [1] of 0.1 to 0.5 µg/mL (≈ 0.204 to 1.02 µM), an MIC [2] of 0.1 to 0.5 µg/mL (≈ 0.204 to 1.02 µM) and an MIC [3] of 0.1 to 0.5 µg/mL (≈ 0.204 to 1.02 µM). For the same compound, the MIC [4] was 0.1 to 0.5 µg/mL (≈ 0.204 to 1.02 µM), the MIC [5] was 0.1 to 0.5 µg/mL (≈ 0.204 to 1.02 µM) and the MIC [6] was 0.1 to 0.5 µg/mL (≈ 0.204 to 1.02 µM). It also gave an MIC [7] of 0.1 to 0.5 µg/mL (≈ 0.204 to 1.02 µM), an MIC [8] of 0.1 to 0.5 µg/mL (≈ 0.204 to 1.02 µM) and an MIC [9] of 0.1 to 0.5 µg/mL (≈ 0.204 to 1.02 µM).

With `CCn1cc(C(=O)O)c(=O)c2cc(F)c(N3CCN(CN4C(=O)/C(=N\c5ccc(S(=O)(=O)Nc6ncnc(OC)c6OC)cc5)c5ccccc54)CC3)cc21` the ED50 [10] was 1.25 mg/kg, the “Ratio ED50” value [11] was over 3.7 and the LD50 [12] was over 4000 mg/kg. For the same compound, the MIC [13] was under 1 µg/mL.

For `N[C@@H](C(=O)N[C@@H]1C(=O)N2C(C(=O)O)=C(Cl)CS[C@H]12)c1ccccc1` [CEFACLOR ANHYDROUS], the MIC [1] was 2 to 8 µg/mL (≈ 5.44 to 21.8 µM), the MIC [5] was 2 to 8 µg/mL (≈ 5.44 to 21.8 µM) and the MIC [8] was 2 to 8 µg/mL (≈ 5.44 to 21.8 µM). The MIC [14] was 2 to 8 µg/mL (≈ 5.44 to 21.8 µM) and the MIC [15] was 2 to 8 µg/mL (≈ 5.44 to 21.8 µM).

`CC(=O)NC[C@H]1CN(c2ccc(N3CCOCC3)c(F)c2)C(=O)O1` [LINEZOLID] gave an MIC [1] of 4 to 8 µg/mL (≈ 11.9 to 23.7 µM), an MIC [5] of 4 to 8 µg/mL (≈ 11.9 to 23.7 µM) and an MIC [8] of 4 to 8 µg/mL (≈ 11.9 to 23.7 µM). For the same compound, the MIC [14] was 4 to 8 µg/mL (≈ 11.9 to 23.7 µM) and the MIC [15] was 4 to 8 µg/mL (≈ 11.9 to 23.7 µM).

With `CCn1cc(C(=O)O)c(=O)c2cc(F)c(N3CCNC(C)C3)c(F)c21` (stereo unspecified) [LOMEFLOXACIN] the MIC [1] was 0.25 to 2.5 µg/mL (≈ 0.712 to 7.12 µM), the MIC [2] was 0.25 to 2.5 µg/mL (≈ 0.712 to 7.12 µM) and the MIC [3] was 0.25 to 2.5 µg/mL (≈ 0.712 to 7.12 µM). It also gave an MIC [4] of 0.25 to 2.5 µg/mL (≈ 0.712 to 7.12 µM), an MIC [5] of 0.25 to 2.5 µg/mL (≈ 0.712 to 7.12 µM) and an MIC [6] of 0.25 to 2.5 µg/mL (≈ 0.712 to 7.12 µM). The MIC [7] was 0.25 to 2.5 µg/mL (≈ 0.712 to 7.12 µM), the MIC [8] was 0.25 to 2.5 µg/mL (≈ 0.712 to 7.12 µM) and the MIC [9] was 0.25 to 2.5 µg/mL (≈ 0.712 to 7.12 µM).

With `Cc1ccc2c(c1)C(=O)C(=O)N2CN1CCN(c2cc3c(cc2F)c(=O)c(C(=O)O)cn3C2CC2)CC1` the MIC [1] was 0.1 to 0.5 µg/mL (≈ 0.198 to 0.991 µM), the MIC [2] was 0.1 to 0.5 µg/mL (≈ 0.198 to 0.991 µM) and the MIC [3] was 0.1 to 0.5 µg/mL (≈ 0.198 to 0.991 µM). The MIC [4] was 0.1 to 0.5 µg/mL (≈ 0.198 to 0.991 µM), the MIC [5] was 0.1 to 0.5 µg/mL (≈ 0.198 to 0.991 µM) and the MIC [6] was 0.1 to 0.5 µg/mL (≈ 0.198 to 0.991 µM). For the same compound, the MIC [7] was 0.1 to 0.5 µg/mL (≈ 0.198 to 0.991 µM), the MIC [8] was 0.1 to 0.5 µg/mL (≈ 0.198 to 0.991 µM) and the MIC [9] was 0.1 to 0.5 µg/mL (≈ 0.198 to 0.991 µM).

Work on `O=C1Nc2ccc(S(=O)(=O)N3CCOCC3)cc2C1=O` yielded an MIC [1] of 0.007 to 0.49 µg/mL (≈ 0.0236 to 1.65 µM), an MIC [16] of 0.007 to 0.49 µg/mL (≈ 0.0236 to 1.65 µM) and an MIC [17] of 0.007 to 0.49 µg/mL (≈ 0.0236 to 1.65 µM). The MIC [18] was 0.007 to 0.49 µg/mL (≈ 0.0236 to 1.65 µM), the MIC [2] was 0.007 to 0.49 µg/mL (≈ 0.0236 to 1.65 µM) and the MIC [3] was 0.007 to 0.49 µg/mL (≈ 0.0236 to 1.65 µM).

`CCn1cc(C(=O)O)c(=O)c2cc(F)c(N3CCNCC3)cc21` [NORFLOXACIN] gave an ED50 [10] of 6 mg/kg.

With `CCn1cc(C(=O)O)c(=O)c2cc(F)c(N3CCN(CN4C(=O)/C(=N\c5ncc(Cc6cc(OC)c(OC)c(OC)c6)c(N)n5)c5cc(Br)ccc54)CC3)cc21` the “Ratio ED50” value [11] was over 3.7 and the MIC [13] was under 1 µg/mL.

`CC1S/C(=N/N=C2\C(=O)Nc3ccc(S(=O)(=O)N4CCOCC4)cc32)N(c2ccccc2)C1=O` (stereo unspecified) gave an MIC [1] of 0.03 to 3.9 µg/mL (≈ 0.0601 to 7.81 µM), an MIC [16] of 0.03 to 3.9 µg/mL (≈ 0.0601 to 7.81 µM) and an MIC [17] of 0.03 to 3.9 µg/mL (≈ 0.0601 to 7.81 µM). The MIC [18] was 0.03 to 3.9 µg/mL (≈ 0.0601 to 7.81 µM), the MIC [2] was 0.03 to 3.9 µg/mL (≈ 0.0601 to 7.81 µM) and the MIC [3] was 0.03 to 3.9 µg/mL (≈ 0.0601 to 7.81 µM).

For `CC(C)(C)Nc1oc(N(C(=O)CN2C(=O)C(=O)c3ccccc32)C(C)(C)C)c(C(=O)OC(C)(C)C)c1C(=O)OC(C)(C)C`, the zone of inhibition at 20000 µg/mL [19] was 15.6 to 26 mm, the zone of inhibition at 20000 µg/mL [20] was 15.6 to 26 mm and the zone of inhibition at 20000 µg/mL [21] was 15.6 to 26 mm. The zone of inhibition at 20000 µg/mL [22] was 15.6 to 26 mm.

For `CC1(C)S[C@@H]2[C@H](NC(=O)[C@H](N)c3ccccc3)C(=O)N2[C@H]1C(=O)O` [AMPICILLIN], the MIC [1] was 0.007 to 1.95 µg/mL (≈ 0.02 to 5.58 µM), the MIC [16] was 0.007 to 1.95 µg/mL (≈ 0.02 to 5.58 µM) and the MIC [17] was 0.007 to 1.95 µg/mL (≈ 0.02 to 5.58 µM). The MIC [18] was 0.007 to 1.95 µg/mL (≈ 0.02 to 5.58 µM), the MIC [2] was 0.007 to 1.95 µg/mL (≈ 0.02 to 5.58 µM) and the MIC [3] was 0.007 to 1.95 µg/mL (≈ 0.02 to 5.58 µM).

Compound `Cc1ccc2c(c1)/C(=N/c1ccc(S(=O)(=O)Nc3cc(C)on3)cc1)C(=O)N2` has an MIC [23] of 5 µg/mL (≈ 12.6 µM), an MIC [24] of 5 µg/mL (≈ 12.6 µM) and an MIC [25] of 5 µg/mL (≈ 12.6 µM). For the same compound, the MIC [26] was 1 µg/mL (≈ 2.52 µM) and the Ratio [27] was 2.5.
